# System: CRE-dependent transcription (PKA/ERK/CREB intracellular signaling)
# Assay: luciferase reporter assay of CRE-dependent gene transcription activity in plasmid-transfected PC12 cells
# Type: cell-based, rat
# Procedure: In order to evaluate the gene transcription activity of each sample, the luciferase reporter assay was performed.
# The luciferase assay is used to quantitatively analyze the transcription activity of a test material. In order to activate the transcription, various control sequences present in an upstream promoter of a gene are required.
# In this embodiment, a plasmid was used in which a CRE sequence which was a control sequence activated by the PKA/ERK/CREB intracellular signaling and was present in an upstream promoter of a memory, and in which learning-related gene and a gene of a luciferase functioning as a luminescent enzyme were connected to each other.
# When the test material activates the CRE-dependent transcription, the luciferase gene present at a downstream side is expressed, and the expression thereof is increased, so that a luciferase protein is increased.
# PC12 cells (rat adrenal medulla pheochromocytoma derived cell line) were seeded in 96-well culture dish at a seeding density of 4.0×10^4 cells/well. Subsequently, the plasmid was transfected in the PC12 cell, and the cultivation was performed in a medium to which each of the samples was dripped. As the medium, an α-modified Dulbecco's modified Eagle's medium supplemented with 1% serum (DMEM) was used. […]
compound,measurement,setting,value
"COc1ccc(-c2cc(=O)c3c(OC)c(OC)c(OC)c(OC)c3o2)cc1OC [Nobiletin, nobiletin]",concentration at which nobiletin has an enhancing action,"in combination with Anredera cordifolia, suggested from ponkan's peel extract assumed to contain 1% nobiletin",≤ 2 µg/mL
same,concentration at which nobiletin expresses the luciferase activity,nobiletin solution alone,2 µg/mL

# Reference: patent publication US20200323934A1, “PHARMACEUTICAL COMPOSITION AND FOOD” (Sankyo Holdings Co., Ltd., priority 2016, published 2020)
